Measured values reported in patent US20240075004A1, “VERY-LONG-CHAIN POLYUNSATURATED FATTY ACIDS, ELOVANOID HYDROXYLATED DERIVATIVES, AND METHODS OF USE” (The Board of Supervisors of Louisiana State University and …, priority 2020, published 2024).

Columns and labels:
p16INK4a = p16INK4a western blots of RPE/Choroid after subretinal OAβ injection; type: in vivo, C57BL/6J WT mice; conditions: elevated by OAβ injection; subretinal co-injection 200 ng with 10 μM OAβ, topical drops 200 nM twice a day; day 7
Protocol: (§1) All animal experiments were performed according to ARVO Statement for the Use of Animals in Ophthalmic and Vision Research, and the protocol was approved by LSU Health New Orleans' Institutional Animal Care and Use Committee (IACUC). 6-month-old 5×FAD mice (stock number: 34848-JAX, The Jackson Laboratory, Bar Harbor, ME, USA), co-overexpress FAD mutant forms of human amyloid precursor protein (the Swedish mutation: K670N, M671L; the Florida mutation: I716V; and the London mutation: V7171) and presenilin 1 (PS1, encoded by Psen1: M146L, L286V) transgenes under transcriptional control of the neuron-specific mouse Thy1 promoter. 5×FAD mice were hemizygotes with respect to the transgenes and non-transgenic WT littermates. Genotyping was performed by PCR of tail DNA. All analyses were carried out blind with respect to the mice genotype. For the subretinal injection, 6-month-old C57BL/6J mice were anesthetized by an intraperitoneal injection of ketamine/xylazine, pupils dilated with 1.0% tropicamide (Akorn, IL, USA); and 0.5% Proparacaine Hydrochloride (Akorn) was applied for topical anesthesia. […]
Samples were lysed by RIPA buffer and protein determined by Bradford assay (Bio-Rad, Hercules, CA, USA). […] Densitometry data were statistically analyzed at 95% confidence level.

ARPE-19 cells = assay: Protein abundance and apoptosis in ARPE-19 cells undergoing UOS; type: cell-based; conditions: RPE cells under UOS; sodium salt forms
Protocol: ELV-N32 or ELV-N34 indicates the sodium salt forms, and ELV-N34-Me or ELV-N32-Me indicates the methyl ester forms. ELVs induces the following effects in ARPE-19 cells undergoing UOS: (panel a) Concentration-dependent (100 and 250 nM) upregulation of SIRT1. The results are the averages of three independent experiments; (panel b) upregulation of Iduna abundance; (panel c) increased abundance of anti-apoptotic proteins Bcl-2 and Bcl-xL; (panel d) decreased abundance of pro-apoptotic proteins Bax, (panel e) Bid and (panel f) Bim. (panel g) Concentration-dependent (100 and 250 nM) upregulation of Prohibitin (type-1) by ELVs takes place. (panel h) Concentration-dependent (50, 100, 250, and 500 nM) reduction of UOS-induced apoptosis. Error bars, SEM; *p<0.05.

[1] = test system: senescence, autophagy, AMD, ECM remodeling and apoptosis genes; assay: RPE and retina gene expression (qPCR) after subretinal OAβ (1-42) injection; type: in vivo, C57BL/6J WT mice; conditions: OAβ subretinally administered in WT mice
Protocol: as §1, with “genotype.” for “genotype. For the subretinal injection, 6-month-old C57BL/6J mice were anesthetized by an intraperitoneal injection of ketamine/xylazine, pupils dilated with 1.0% tropicamide (Akorn, IL, USA); and 0.5% Proparacaine Hydrochloride (Akorn) was applied for topical anesthesia.”
For the in vivo experiments, eyeballs were enucleated and anterior segment containing the cornea, lens and iris removed and the retina separated from the rest of the eyecup (RPE/choroid). […] Quantitative PCR was performed in a CFX-384 Real-Time PCR system (Bio-Rad). The expression of target genes was normalized to the geometric mean of housekeeping genes and relative expression was calculated by the comparative threshold cycle method (ΔΔCT).

RPE and PRC = assay: Subretinal injection of OAβ in WT mice: fundus/OCT and ZO-1 whole flat mount of RPE; type: in vivo, C57BL/6J WT mice; conditions: for PRC degeneration (fundus, OCT): ELV injected alone (200 ng subretinal), six-month-old WT mice, 7 days; for RPE morphology (ZO-1 flat mount) / protection of PRC (OCT, PRC layer thickness): co-injected with OAβ, followed by topical application during 7 days
Protocol: All animal experiments were performed according to ARVO Statement for the Use of Animals in Ophthalmic and Vision Research, and the protocol was approved by LSU Health New Orleans' Institutional Animal Care and Use Committee (IACUC). 6-month-old 5×FAD mice (stock number: 34848-JAX, The Jackson Laboratory, Bar Harbor, ME, USA), co-overexpress FAD mutant forms of human amyloid precursor protein (the Swedish mutation: K670N, M671L; the Florida mutation: I716V; and the London mutation: V7171) and presenilin 1 (PS1, encoded by Psen1: M146L, L286V) transgenes under transcriptional control of the neuron-specific mouse Thy1 promoter. 5×FAD mice were hemizygotes with respect to the transgenes and non-transgenic WT littermates. Genotyping was performed by PCR of tail DNA. All analyses were carried out blind with respect to the mice genotype. For the subretinal injection, 6-month-old C57BL/6J mice were anesthetized by an intraperitoneal injection of ketamine/xylazine, pupils dilated with 1.0% tropicamide (Akorn, IL, USA); and 0.5% Proparacaine Hydrochloride (Akorn) was applied for topical anesthesia. Eyes were punctured with a 30-gauge needle between the corneoscleral junction and the ora serrata into the vitreous cavity without disturbing the lens. Compounds were delivered to the subretinal region using a 33-gauge blunt needle attached to a 5 μl Hamilton syringe (Hamilton Company, Reno, NV, USA) under a dissecting microscope. Non-injected mice were used as negative control while the PBS injected mice were used for sham. The injection volume was 2 μl containing PBS, 10 μM of OAβ, 10 μM of OAβ+200 ng ELV-N-32, 200 ng ELV-N-32 alone, 10 μM of OAβ+200 ng ELV-N-34 or 200 ng ELV-N-34 alone (n=12/group). All groups received topical drops: PBS only or ELV-N-32 (200 nM) or ELV-N-34 (200 nM), twice a day for 3 or 7 days.
For the whole mount RPE staining, eyeballs were enucleated and pre-fixed in 4% PFA for 15 min. Then the eye cup containing RPE sheet were fixed in 4% PFA for 30 min, washed in PBS 3× following the blocking step for 1 h at room temperature. The immunostaining was performed by incubating primary antibody (ZO-1) for 48 h at 4° C. Then the eye cups were washed 3× with PBS and incubated with the secondary antibody for 12 h at 4° C. The primary human RPE cells as well as mouse eye cups were embedded in ProLong™ Gold Antifade Mounting medium (Thermo Fisher Scientific) between two glass coverslips. Pictures were taken with Olympus FV1200 microscope (Olympus, Japan). Images were analyzed by software ImageJ (rsb.info.nih.gov/ij/).
7 days post-injection, mice were anesthetized with ip ketamine/xylazine, pupil dilated by topical 1.0% tropicamide and placed in a custom-built holder for OCT imaging (body temperature maintained at 38° C. with a heat pad). Retinas were imaged along the horizontal meridian through the optic nerve head using a Heidelberg Spectralis HRA OCT system (Heidelberg Engineering, Heidelberg, Germany). Axial resolution is […]. The raw OCT B-scans cross-sectional images were exported with the scale in m and opened in ImageJ (http//imagej.nih.gov/ij). The PRC layer thickness was defined as the width from the tip of the outer nuclear layer, right after the outer plexiform layer, to the outer segments of PRC. Three measurements were made on the same scan and averaged. Mean and standard error of the mean (SEM) were calculated (n=4/group). Students' T-test was used to calculate statistical significance and a P-value less than 0.05 was considered significant.

[2] = methyl ester or sodium salt, cited from earlier work; for infarct volumes: administered 1 hour following 2 hours of ischemia by MCA occlusion; for cell survival / neurovascular unit disruption: administered 1 hour following 2 hours of ischemia

SMILES: CC/C=C\C[C@H](O)\C=C/C=C/C=C/[C@H](O)C/C=C\C/C=C\CCCCCCCCCCCCC(=O)O [ELV-N-32]
- expression of the key senescence marker p16INK4a (western blots of RPE/Choroid) (p16INK4a): down regulated
- abundance of cell damaging proteins (ARPE-19 cells): decrease abundance
- abundance of pro-homeostatic proteins (ARPE-19 cells): enhance abundance
- OAβ-activated senescence program (p16INK4a, MMP1, p53, p21, p27, Il-6 gene expression, SASP secretome) followed by RPE and PRC demise [1]: blunt these events and elicit protection to both cells
- PRC degeneration (fundus, OCT) (RPE and PRC): did not yield PRC degeneration
- RPE morphology (ZO-1 flat mount) (RPE and PRC): restoration of RPE morphology
- protection of PRC (OCT, PRC layer thickness) (RPE and PRC): protection of PRC
- infarct volumes [2]: reduced
- cell survival [2]: promoted
- neurovascular unit disruption [2]: diminished

SMILES: CC/C=C\C[C@H](O)\C=C/C=C/C=C/[C@H](O)C/C=C\C/C=C\CCCCCCCCCCCCCCC(=O)O [ELV-N-34]
- expression of the key senescence marker p16INK4a (western blots of RPE/Choroid) (p16INK4a): down regulated
- abundance of cell damaging proteins (ARPE-19 cells): decrease abundance
- abundance of pro-homeostatic proteins (ARPE-19 cells): enhance abundance
- OAβ-activated senescence program (p16INK4a, MMP1, p53, p21, p27, Il-6 gene expression, SASP secretome) followed by RPE and PRC demise [1]: blunt these events and elicit protection to both cells
- PRC degeneration (fundus, OCT) (RPE and PRC): did not yield PRC degeneration
- RPE morphology (ZO-1 flat mount) (RPE and PRC): restoration of RPE morphology
- protection of PRC (OCT, PRC layer thickness) (RPE and PRC): protection of PRC
- infarct volumes [2]: reduced
- cell survival [2]: promoted
- neurovascular unit disruption [2]: diminished
